{"source": "patent US7718161B2", "about": "“Method for treating a motoneuron disorder” (UCB Pharma GmbH, priority 2004, dated 2010)", "key": {"SOD mutant mice [1]": {"test_system": "SOD mutant mice", "test": "Grid test in SOD mutant mice", "type": "in vivo, mouse", "experimental": "(§1) The transgenic mouse strain used for this study is G1H (Gurney et al., 1994). The animals begin to show signs of posterior limb weakness at around 3 months of age and die at 4 months.\n(§2) 40 mice are included in the study and divided into 4 groups of 10 mice. • a SOD vehicle group • a SOD treated group (SPM 927 3 mg/kg) • a SOD treated group (SPM 927 10 mg/kg) • a SOD treated group (SPM 927 30 mg/kg)\n(§3) • Rotarod test: this test evaluates the ability of the animal to stay on a rotating dowel allowing evaluation of motor coordination and proprioceptive sensitivity. The apparatus is a 3 cm diameter automated rod which turns at 12 rounds per minute (Bioseb, Paris, France). The rotarod test measures how long the mouse can maintain itself on the axle without falling. The test is stopped after an arbitrary limit of 120 s. Should the animal fall down before 120 s, the performance is recorded and two additional trials are performed. The mean time of 3 trials is calculated. […] The number of times the mice put their paws through the grid is counted and serves as a measure for motor coordination. • Hanging test: this test evaluates the ability of the animal to hang on a wire. […] The time needed by the animal to catch the string with its hindpaws is recorded (60 s maximum) during three consecutive trials. […]"}, "SOD mutant mice [2]": {"test_system": "SOD mutant mice", "test": "Hanging test in SOD mutant mice", "type": "in vivo, mouse", "details": "twice daily intraperitoneally from day 60", "experimental": "as §1, §2, §3"}, "SOD mutant mice [3]": {"test_system": "SOD mutant mice", "test": "Survival in the SOD mutant mouse model of ALS", "type": "in vivo", "experimental": "The present study investigates the effects of SPM 927 to protect or to reduce impairments observed in this ALS model. For this purpose behavioral measurements and EMGs are performed in SOD-G93A mice overexpressing mutant human Cu, Zn SOD.\nas §1, §2\n(§4) Animals were weighed every day. The general status of the mice was checked daily, especially for the presence of tremor, for skin aspect and for muscle wasting. EMG testing was performed once every week, starting on D70 of age until the death of the animals. The survival rate and the interval from symptom onset until death were recorded.\nThe animals were treated from day 60 (before the beginning of the clinical signs) until the animal's death. The treatment was administered twice daily intraperitoneally.\nA global analysis of the data was made using one factor or repeated measures analysis of variance (ANOVA). […]"}, "SOD mutant mice [4]": {"test_system": "SOD mutant mice", "test": "Electromyographic recordings (compound muscle action potential) in SOD mutant mice", "type": "in vivo, mouse", "experimental": "as §1, §2, §4\nElectromyographic recordings were performed using a Neuromatic 2000M electromyography apparatus. During EMG the mice are anesthetized (60 mg kg-1, Imalgène®). The measured parameters are the amplitude and the latency of the compound muscle action potential (CMAP). CMAP is measured in gastrocnemius muscle after stimulation of the sciatic nerve. A reference electrode is inserted near the Achilles tendon and an active needle placed at the base of the tail. A ground needle is inserted on the lower back of the mouse. […] The amplitude (mV) and the latency of the response (ms) are measured. […]"}, "SOD mutant mice [5]": {"test_system": "SOD mutant mice", "test": "Rotarod test in SOD mutant mice", "type": "in vivo, mouse", "details": "twice daily intraperitoneally from day 60", "experimental": "as §1, §2, §3"}, "[6]": {"details": "twice daily intraperitoneally from day 60, dose not given"}}, "note": "“Also recorded” adds a separate entry of the source."}
{"substance": "(R)-2-acetamide-N-benzyl-3-methoxypropionamide [SPM 927]", "values": [{"measurement": "motor impairment (grid performance)", "setting": "SOD mutant mice [1]; FIG. 2, 30 mg/kg, twice daily intraperitoneally", "result": "attenuates motor impairment"}, {"measurement": "motor symptoms in the grid test", "setting": "SOD mutant mice [1]; [6]", "result": "alleviates motor symptoms"}, {"measurement": "motor symptoms in the hanging test", "setting": "SOD mutant mice [2]", "result": "alleviates motor symptoms"}, {"measurement": "life-span of SOD mutant mice", "setting": "SOD mutant mice [3]; FIG. 1, 3, 10, 30 mg/kg twice daily intraperitoneally from day 60 until death", "result": "dose dependently prolongs life-span"}, {"measurement": "survival time after onset of symptoms", "setting": "SOD mutant mice [3]; chronic treatment twice daily intraperitoneally from day 60, G1H SOD-G93A mice", "result": "prolongs survival time after symptom onset; also recorded: prolongs survival time after onset of symptoms"}, {"measurement": "motor impairment (latency of compound muscle action potential)", "setting": "SOD mutant mice [4]; FIG. 3, 10 mg/kg, twice daily intraperitoneally", "result": "attenuates motor impairment"}, {"measurement": "EMG abnormalities", "setting": "SOD mutant mice [4]; [6]", "result": "attenuates motor symptoms including abnormalities in electrophysiological recordings (EMG)"}, {"measurement": "motor symptoms in the rotarod test", "setting": "SOD mutant mice [5]", "result": "alleviates motor symptoms"}]}
